# Data as given in patent US20260256133A1, “AN EMULSIFIABLE CONCENTRATE HAVING A (SUBSTITUTED) BENZALDEHYDE-BASED SOLVENT SYSTEM” (BASF SE, priority 2022, published 2026).
# Columns and labels:
# [1] = test system: Soya plants; experiment: Phytotoxicity determination on soya; assay type: in vivo; conditions: 200 L/ha of 1% w/w emulsion (EC 90% w/w solvent, 10% w/w emulsifier), after 14 days
# Method: Soya plants grown under standard greenhouse conditions in the growth stage 13 were treated with aqueous emulsions in a spray cabin. The resulting plant spray dosage represented an application rate of 200 L/ha of 1% w/w emulsion, corresponding to the application of 2 L/ha of the emulsifiable concentrate. […] The experimental period lasted 14 days, during which time the Soya plants were given optimum watering, nutrients, and light.
# An assessment of 1 to 10% phytotoxicity is the limit of acceptable plant damage by farmers.
# [2] = Water solubility of the solvent (method based on CIPAC MT157.1 and OECD 105); assay type: physicochemical; conditions: solvent in water, visual assessment of undissolved solvent
# Method: The water solubility of the solvent was determined according to a method based on CIPAC MT157.1 and OECD 105 via the visual assessment of undissolved solvent in water after vigorous mixing and standing. Herein, various amounts of solvent and water were mixed with vigorous shaking in a glass-stoppered graduated cylinder or separating funnel, followed by standing for at least 30 min to enable separation. […] This method can be repeated with various amounts of solvent and water to enable the determination of the water-solubility of the solvent.
Compound,"phytotoxicity (visual, scale 0% to 100%) [1] [%]",water solubility [2] [% w/w]
"CCCCC(CC)COC(=O)C(C)O (stereo not shown) [2-Ethyl hexyl lactate, 2-Ethylhexyl Lactate]",30,–
COc1ccc(C=O)cc1 [4-anisaldehyde],0,0.20
"CCCCCCCCCC(=O)N(C)C [Dimethyl decanamide, dimethyl decanamide]",50,–
